Assay results published in patent publication US4005084A, “Thienylmethyl phenoxy morpholine compounds” (Yoshitomi Pharmaceutical Industries, Ltd., priority 1975, dated 1977).
Read-outs that look alike come from different tables or passages of the source.

How the values were obtained:
Shay ulcer = assay: Inhibitory activity on Shay ulcer in rats; format: in vivo, Wistar rats (female); conditions: Rattus norvegicus, sc, read-out: Inhibitory activity on Shay ulcer, ED50
Description: Female Wistar rats (140-180 g) were fasted for 44 hours but allowed free access to ater after which the pylorus was ligated as described by Shay et al. in the Gastroenterology, vol. […] Immediately after this ligation, test compound was given subcutaneously. Ten hours later, the animals were sacrificed by an overdose of ether, the stomach was removed and examined for lesions. The logarithm of the sum of each damaged area per rat was referred to as the ulcer index.
The Per Cent Inhibition was calculated as follows: [formula]
The ED50 was read from the semilogarithmic graph on which the Per Cent Inhibition was plotted vs. mg/kg dose.

gastric motility = assay: Inhibitory activity on gastric motility under stress in rats; format: in vivo, Wistar rats (male); conditions: Rattus norvegicus, read-out: Inhibitory activity on gastric motility, ED50
Description: The procedure described by K. Watanabe in the Chemical & Pharmaceutical Bulletin, vol.
Male Wistar rats weighing about 250 g were used. After fasting for 18 hours, rats were fixed on their backs by the limbs with thread on boads and immersed into water to the depth of the xiphoid cartilage. Temperature of water was kept at 22° C.
Pressure change in small rubber balloon fixed in the grandular stomach was recorded with pressure transducer (Nihon Koden Kogyo Co., Ltd., MP-4T). The balloon was inserted from the forestomach under light ether anesthesia. Initial pressure was kept at the height of 10 mmHg.
When the effect of anesthesia and of the operation diminished, test compound was administered into the stomach through the polyethylene tube which was previously inserted into the stomach with the balloon.

gastric secretion = assay: Inhibitory activity on gastric secretion in rats; format: in vivo, Wistar rats (male); conditions: Rattus norvegicus, sc, read-out: Inhibitory activity on gastric secretion, ED50
Description: After fasting for 48 hours, the stomach of male Wistar rats weighing about 200 g were ligated at the pylorus under light ether anesthesia as described by Shay et al. in the Gastroenterology, vol. 5, pp. 43-61 (1945). Immediately after this ligation, test compound was given subcutaneously. Four hours later, the gastric juice in the stomach was collected and centrifuged for each rat and expressed as ml per 100 g of body weight.
The ED50 was calculated in the same manner as Test (I) on Shay ulcer.

[1] = biological target: T1, acetylcholine (contracting action of the guinea pig intestine) (Cavia porcellus); assay: Acetylcholine antagonistic activity on contraction of guinea pig intestine; conditions: negative log10 of molar concentration reducing effect of a double dose of acetylcholine to that of a single dose, read-out: Acetylcholine antagonistic activity, pA2 (converted)
T1 construct: contracting action of the guinea pig intestine; from tissue; host or cells: guinea pig intestine
Description: Acetylcholine antagonistic activity was tested according to the method described by J. M. Van Rossum et al. in the Archives Internationales de Pharmacodynamie et de Therapie, vol. 143, pp. 240-246 and pp. 299-330 (1963). The pA2 is the negative of the logarithm, to the base 10, of the molar concentration of the test compound which reduced the effect of a double dose of acetylcholine on contracting action of the guinea pig intestine compared with that of a single dose.

T1 sequence (H0W1Z3 1-590): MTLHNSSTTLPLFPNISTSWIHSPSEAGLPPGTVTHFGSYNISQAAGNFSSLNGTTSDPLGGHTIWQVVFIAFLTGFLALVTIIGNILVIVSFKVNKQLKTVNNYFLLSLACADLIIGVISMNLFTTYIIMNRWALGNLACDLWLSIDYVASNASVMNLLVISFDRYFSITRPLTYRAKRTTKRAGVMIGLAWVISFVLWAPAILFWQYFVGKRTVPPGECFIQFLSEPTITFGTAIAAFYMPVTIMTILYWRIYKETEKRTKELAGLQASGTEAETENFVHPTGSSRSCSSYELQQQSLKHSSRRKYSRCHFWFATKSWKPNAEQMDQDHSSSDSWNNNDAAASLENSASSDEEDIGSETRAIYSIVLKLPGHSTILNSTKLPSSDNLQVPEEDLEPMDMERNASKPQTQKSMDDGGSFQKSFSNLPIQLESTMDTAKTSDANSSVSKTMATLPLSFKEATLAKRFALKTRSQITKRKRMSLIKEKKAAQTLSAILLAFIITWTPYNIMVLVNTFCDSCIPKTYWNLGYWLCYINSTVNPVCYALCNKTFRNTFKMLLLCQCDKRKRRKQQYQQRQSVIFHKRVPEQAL

Row | SMILES | ED50 (Shay ulcer; 10 h) | ED50 (gastric motility) | ED50 (gastric secretion; 4 h) | ED50 (Shay ulcer; subcutaneous, immediately after pylorus ligation, examined 10 hours later) | ED50 (gastric motility; administered into the stomach, stress by water immersion at 22° C) | ED50 (gastric secretion; subcutaneous, immediately after pylorus ligation, gastric juice collected 4 hours later) | Kb [1]
1 | CN1[C@@H]2CC[C@H]1C[C@@H](OC(=O)C(CO)c1ccccc1)C2 (stereo partly shown) [Atropine, reference compound] | 0.5 mg/kg | ≤ 3 mg/kg | 0.12 mg/kg |  |  |  | 
2 | O=C(O)/C=C\C(=O)O.c1csc(Cc2ccccc2OCC2CNCCO2)c1 (stereo not shown) [Compound A, 2-[2-(2-thenyl)phenoxymethyl]morpholine maleate] |  |  |  | 5.5 mg/kg | 2.1 mg/kg | 4.5 mg/kg | 6.31 µM
